From PubChem BioAssay (NCI)
Where “and” joins values, the source holds several entries; their conditions need not be identical. Equal entries are not always repeated.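 Method: 48-hour compound exposure of cells in 96-well plates, five concentrations, linear interpolation of endpoints. TGI is the concentration that stops growth completely.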

What was measured:
Test in all cases: NCI tumour cell line growth inhibition, 48 h
[1] = test system: DMS 114 small cell lung
[2] = test system: HOP-18 NSCLC
[3] = test system: KM20L2 colon
[4] = test system: LXFL 529 NSCLC
[5] = test system: M19-MEL melanoma
[6] = test system: RXF-631 renal
[7] = test system: SNB-78 CNS
[8] = test system: XF 498 CNS
[9] = test system: P388 leukemia
[10] = test system: P388/ADR leukemia
[11] = test system: SN12K1 renal

SMILES | TGI [1] | TGI [2] [µM] | TGI [3] | TGI [4] [µM] | TGI [5] | TGI [6] [µM] | TGI [7] [µM] | TGI [8] [µM] | TGI [9] [µM] | TGI [10] [µM] | TGI [11] [µM]
BrC/C=C/C[P+](c1ccccc1)(c1ccccc1)c1ccccc1 | 84 µM | > 100 | > 100 µM | 45.1 | 33.2 µM | > 100 | > 100 | 43.6 | – | – | –
N=S(c1ccccc1)c1ccccc1[N+](=O)[O-] (stereo not given) | 32.7 µM | > 100 | 41.5 µM | 30.9 | 29.7 µM | – | > 100 | 19.6 | – | – | –
C=CCNC(=S)/N=C/c1c(O)c2ccccc2oc1=O | > 100 µM | > 100 | > 100 µM | > 100 | > 100 µM | – | > 100 | > 100 | – | – | –
O=c1ccc2cc3ccc4cccc5ccc(c2o1)c3c45 | > 100 µM | > 100 | > 100 µM | > 100 | > 100 µM | > 100 | > 100 | 56.8 | – | – | –
Cc1cc(=O)c2c([nH]1)NS(=O)(=O)NC2=O | – | – | – | > 100 | > 100 µM | > 100 | > 100 | > 100 | – | – | –
COCOc1ccc(Cn2c(=O)n(C)c(=O)c3c2ncn3C)cc1[N+](=O)[O-] | > 100 µM | – | > 100 µM | > 100 | > 100 µM | – | > 100 | – | – | – | –
Cc1c(C(=O)CSc2nc3ccccc3c(=O)n2-c2ccccc2)c(=O)n(-c2ccccc2)n1C | > 100 µM | – | > 100 µM | – | > 100 µM | – | > 100 | > 100 | – | – | –
CC(C(=O)n1nnc2ccccc21)N(c1ccccc1)c1ccccc1 (stereo not given) | – | – | > 100 µM | > 100 | > 100 µM | – | > 100 | – | – | – | –
CC[C@H]1CN2CCc3cc(OC)c(OC)cc3[C@@H]2C[C@@H]1C[C@H]1NCCc2cc(OC)c(OC)cc21 | 0.136 µM and 0.0466 µM | 0.403 | 0.488 µM and 0.312 µM | – | 0.0824 µM and 0.147 µM | – | – | – | – | – | –
O=C(NC(Cc1ccc(I)cc1)C(=O)O)c1ccc(I)cc1 (stereo not given) | > 100 µM | > 100 | > 100 µM | – | > 100 µM | – | > 100 | > 100 | > 100 | > 100 | > 100
CC(=O)OCC1OC(n2cc([N+](=O)[O-])c(=O)[nH]c2=O)C(OC(C)=O)C(OC(C)=O)C1OC(C)=O (stereo not given) | > 100 µM | > 100 | > 100 µM | > 100 | > 100 µM | – | – | > 100 | – | – | –
Cc1cn(C2OC(C)(CO)C(O)C2O)c(=O)[nH]c1=O (stereo not given) | > 100 µM | > 100 | – | > 100 | > 100 µM | – | – | – | – | – | –
O=S(=O)(O)c1cc2ccc1/C=C\c1ccc(cc1S(=O)(=O)O)N=Nc1ccc(c(S(=O)(=O)O)c1)/C=C\c1ccc(cc1S(=O)(=O)O)N=N2 | – | > 100 | > 100 µM | – | > 100 µM | – | > 100 | > 100 | > 100 | > 100 | > 100
